Publication PMC7732531 (Frontiers in Pharmacology, 2020)
“And” between values parts separate entries of the source, which are not always exact repeats. Equal values may be shown once.

How the values were obtained:
in vitro [1] = details: rat; for fraction unbound at 4 h, 1 µM: plasma
Procedure: The fraction of unbound YL-IPA08 in plasma and liver microsomes of rat and human, and brain homogenates of rat were determined utilizing Rapid Equilibrium Dialysis method ([Waters et al., 2008]). Rat brain homogenate was harvested in 4-fold volume (w/v) of PBS (pH 7.4). YL-IPA08 were spiked into fresh plasma, rat brain homogenate, liver microsomes (0.2 mg/ml protein) at concentration of 1 µM, and then dialyzed against […] on a shaker at 37°C for 4 h. To avoid the high non-specific binding of YL-IPA08, 0.01% Tween 80 was added in the incubation mixture. At the end of the incubation, protein was precipitated with acetonitrile (containing IS) and analyzed by LC-MS/MS. Phenacetin, quinidine, and warfarin were selected as positive control for the protein binding test.
The unbound fraction of YL-IPA08 in plasma or liver microsomes (ƒu,x) was calculated as shown in Eq. 2, and unbound fraction in the tissue homogenate (ƒu,b) was calculated according to Eq. 3. fu,x = Concbuffer chamber/Concplasma/liver microsomes chamber (2) fu,b = Concbuffer chamber/Concbrain homogenate chamber (3) The measured unbound fractions would be higher when a tissue is homogenized and diluted in buffer, the unbound fractions in an undiluted tissues (ƒu,brain) were calculated using Eq. 4 ([Kalvass and Maurer, 2002]). Undiluted fu,brain=1/D/((1/fu,brain homogenate)−1)+1/D (4) Where D represents the fold of dilution factor in brain homogenates. The free fraction of plasma and undiluted tissue is used in tissue-to-plasma exposure ratio calculation.

in vitro [2] = format: in vitro ADME; details: human, plasma
Procedure: (§1) The fraction of unbound YL-IPA08 in plasma and liver microsomes of rat and human, and brain homogenates of rat were determined utilizing Rapid Equilibrium Dialysis method ([Waters et al., 2008]). Rat brain homogenate was harvested in 4-fold volume (w/v) of PBS (pH 7.4). YL-IPA08 were spiked into fresh plasma, rat brain homogenate, liver microsomes (0.2 mg/ml protein) at concentration of 1 µM, and then dialyzed against biomatrices on a shaker at 37°C for 4 h. To avoid the high non-specific binding of YL-IPA08, 0.01% Tween 80 was added in the incubation mixture. At the end of the incubation, protein was precipitated with acetonitrile (containing IS) and analyzed by LC-MS/MS. Phenacetin, quinidine, and warfarin were selected as positive control for the protein binding test.
The unbound fraction of YL-IPA08 in plasma or liver microsomes (ƒu,x) was calculated as shown in Eq. 2, and unbound fraction in the tissue homogenate (ƒu,b) was calculated according to Eq. 3. fu,x = Concbuffer chamber/Concplasma/liver microsomes chamber (2) fu,b = Concbuffer chamber/Concbrain homogenate chamber (3) The measured unbound fractions would be higher when a tissue is homogenized and diluted in buffer, the unbound fractions in an undiluted tissues (ƒu,brain) were calculated using Eq. 4 ([Kalvass and Maurer, 2002]). […]

in vitro [3] = format: in vitro ADME; details: rat
Procedure: as §1

[4] = Protein binding by rapid equilibrium dialysis, rat brain homogenate; format: in vitro ADME
Procedure: as §1

TSPO [5] = experiment: In vitro TSPO binding, crude mitochondrial fraction from rat cerebellum; details: corrected by binding fraction of 10-volume brain homogenate
Description: Unbound fractions of YL-IPA08 in rat plasma and brain homogenate were 0.6 and 0.49%, respectively. K p value of brain to plasma in rats was obtained under steady state to reach brain equilibrium in a transient dosing regimen. Then, K p,uu achieved 0.18. The unbound concentration of YL-IPA08 in brain can be estimated based on the plasma concentrations after rats receiving different dosages of YL-IPA08 via oral dosing (Table 4). For example, the unbound concentration of 6.5 pg/g in brain can be achieved after 1 mg/kg oral dosing. […] The unbound concentration in the incubates was obtained with 0.0108 nM (e.g., 4.9 pg/ml) by correcting the binding fraction of 10-volume brain homogenate (0.047).

[6] = Prediction of therapeutic human plasma concentration from Kp,uu; details: C b,u,human set to 4.9 pg/ml, rat K p,uu, human unbound fraction
Description: K p,uu in the current investigation is critical to link the PD of in vitro and in vivo results (see the result part). What is more important is that K p,uu is often preserved across species ([Di et al., 2013]). Human K p,uu can be estimated using that of rat ( Kp,uu,human≈Kp,uu,rat ). Thus, unbound drug concentration in human brain can be calculated by using the rat K p,uu, rat times the human unbound plasma concentration [ Cb,u,human≈Kp,uu,rat ×Cp,u,human ]. At the current stage, if C b,u,human (4.9 pg/ml) was set as the in vitro TPSO-binding activity concentration for the onset efficacy, therapeutic human plasma concentration would be around 27.2 ng/ml according to the calculation.

[7] = Stability of YL-IPA08 in rat plasma (LC-MS/MS validation); format: in vitro ADME
Procedure: The quantification of YL-IPA08 in rat plasma was fully validated, and in vitro samples were particularly validated by selectivity, precision, and stability. The calibration curves of YL-IPA08 in rat plasma and in vitro incubates ranged in the concentrations of 0.5–500 ng/ml and 1–1,000 nM, respectively. The intra-day precision and inter-day precision […] were less than 15% at QC concentrations (full methodology validation results were presented in Supplementary Tables S1–S3).

[8] = human, microsomes, 0 h, 1 μM, pH 7.4
TSPO [9] = tested on: TSPO; design: method as in Zhang et al. (2017); details: crude mitochondrial fraction from rat cerebellum, 10 volumes HS buffer; ref Zhang et al. (2017); cited from earlier work
forced swim rats = tested on: forced swim rats; design: method as in Zhang et al., 2017; details: ref Zhang et al., 2017, cited from earlier work
in vitro [10] = details: rat, microsomes, pH 7.4
[11] = Metabolic stability in rat liver microsomes (NADPH / UDPGA); details: RLM
[12] = Metabolic stability in human liver microsomes (NADPH / UDPGA); details: HLM
[13] = Pharmacokinetics in portal and jugular vein double cannulated rats; details: double cannulation rat model, if F a is 100%
Procedure: The surgical procedure for portal vein catheter insertion was performed according to reference ([Matsuda et al., 2012]). Male SD rats (250–280 g) were purchased from Beijing Vital River Laboratory Animal Technology Co., Ltd. (Beijing, China). Rats were anesthetized with 2% pentobarbital sodium (0.2–0.3 mg/100 g) intraperitoneally dosed. Cannulation into the jugular vein was performed by the method of Murakami reported ([Murakami et al., 2003]) with minor modification. Briefly, an incision of ∼0.5 cm near right clavicle was made and the jugular vein was exposed. Next, this vein was cannulated with ∼12.5 cm of silicone gel tubing (0.6 mm I.D. × 0.9 mm O.D., Skillsmodel Inc., Beijing, China). The other side of the tubing was passed through the back skin. 2.5 cm midline incision was made in the abdominal cavity close to ensiform process and the portal vein was detached. To prevent bleeding, the portal vein was ligated temporarily as the catheter was inserted. The silicone tubing (22 cm, 0.6 mm I.D. × 0.9 mm O.D., Skillsmodel Inc., Beijing, China) was inserted immediately and fixed by a purse-string suture on the portal vein. The time to reperfusion was about 1 min after intercepted blood flow. In addition, a catheter with trumpet-shaped opening was used to prevent the catheter from slipping out of the vessel and minimize the effect on blood flow. Another end of the catheter was passed subcutaneously to the skin close to the scapula.
Blood samples were collected at 0, 0.083, 0.25, 0.5, 1, 2, 4, 6, 8 and 12 h. Blood (approximately 100 µl) was collected from the jugular and portal veins into tubes containing heparin on ice and centrifuged within 1 h of collection. Plasma was harvested and stored at −20°C for bioanalysis.
FaFg was calculated using mass balance method and rat portal blood flow (Qpv) of 32 ml/min/kg, where Rb/p is used to convert plasma concentrations to blood concentrations.

[14] = Freeze-thaw three cycles, HQC (400ng/ml)
[15] = Freeze-thaw three cycles, LQC (1ng/ml)
[16] = Freeze-thaw three cycles, MQC (20ng/ml)
[17] = In auto-sample for 24 h, HQC (400ng/ml)
[18] = In auto-sample for 24 h, LQC (1ng/ml)
[19] = In auto-sample for 24 h, MQC (20ng/ml)
[20] = Room temperature for 24 h, HQC (400ng/ml)
[21] = Room temperature for 24 h, LQC (1ng/ml)
[22] = Room temperature for 24 h, MQC (20ng/ml)

With `CCN(Cc1ccccn1)C(=O)Cc1c(-c2ccc(Cl)c(Cl)c2)nc2cc(C)ccn12` [YL-IPA08] the “Concentration, Cbuffer chamber” value (in vitro [1]; 4 h, 1 µM) was 5.44 ± 0.33 nM, the “Concentration, Cplasma/microsome chamber” value (in vitro [1]; 4 h, 1 µM) was 872.67 ± 32.52 nM and the “Protein biding (%)” value (in vitro [1]; 4 h, 1 µM) was 99.40 ± 0.01%. For the same compound, the fraction unbound at 4 h, 1 µM (in vitro [1]) was about 0.01, the fraction unbound at 4 h, 1 µM (in vitro [1]; Unbound fraction) was 0.006 and the fraction unbound at 4 h, 1 µM (in vitro [2]) was 0.001. For the same compound, the “Concentration, Cbuffer chamber” value (in vitro [3]; 4 h, 1 µM) was 168.00 ± 5.66 nM, the “Concentration, Cplasma/microsome chamber” value (in vitro [3]; 4 h, 1 µM) was 393.00 ± 18.03 nM and the “Protein biding (%)” value (in vitro [3]; 4 h, 1 µM) was 57.14 ± 2.92%. For the same compound, the fraction unbound at 4 h, 1 µM (in vitro [3]; microsomes) was 0.428, the “Protein biding (%)” value ([4]; Rat brain homogenate, 1 µM, dialysis 4 h) was 99.51 ± 0.01% and the “Concentration, Cbuffer chamber” value ([4]; Rat brain homogentate, 4 h) was 18.85 ± 0.21 nM. For the same compound, the “Concentration, Cplasma/microsome chamber” value ([4]; rat, 4 h, 1 µM, pH 7.4) was 788.33 ± 8.39 nM, the fraction unbound at 4 h, 1 µM ([4]; rat, brain homogenate, pH 7.4) was 0.0049 and the “unbound concentration in the incubates / in vitro TSPO-binding activity” value (TSPO [5]) was 4.9 pg/mL. The “predicted therapeutic human plasma concentration” value [6] was about 27.2 ng/mL, the Accuracy ([7]; 4℃ for 24 h, HQC (400ng/ml)) was 99.8±8.0% and the Measured value ([7]; 4℃ for 24 h, HQC (400ng/ml)) was 399.00 ± 31.76 ng/mL. It also gave an Accuracy ([7]; 4℃ for 24 h, LQC (1ng/ml)) of 113.0±9.0%, a Measured value ([7]; 4℃ for 24 h, LQC (1ng/ml)) of 1.13 ± 0.09 ng/mL and an Accuracy ([7]; 4℃ for 24 h, MQC (20ng/ml)) of 108.7±5.3%. The Measured value ([7]; 4℃ for 24 h, MQC (20ng/ml)) was 21.73 ± 1.07 ng/mL, the Accuracy ([7]; -40℃ for 7 d, HQC (400ng/ml)) was 105.1±8.5% and the Measured value ([7]; -40℃ for 7 d, HQC (400ng/ml)) was 420.33 ± 33.84 ng/mL. For the same compound, the Accuracy ([7]; -40℃ for 7 d, LQC (1ng/ml)) was 105.0±6.0%, the Measured value ([7]; -40℃ for 7 d, LQC (1ng/ml)) was 1.05 ± 0.06 ng/mL and the Accuracy ([7]; -40℃ for 7 d, MQC (20ng/ml)) was 105.0±4.1%. For the same compound, the Measured value ([7]; -40℃ for 7 d, MQC (20ng/ml)) was 21.00 ± 0.82 ng/mL, the Accuracy [7, 14] was 96.8±2.6% and the Measured value [7, 14] was 387.33 ± 10.21 ng/mL. It also gave an Accuracy [7, 15] of 114.0±5.0%, a Measured value [7, 15] of 1.14 ± 0.05 ng/mL and an Accuracy [7, 16] of 103.0±1.8%. It also gave a Measured value [7, 16] of 20.60 ± 0.36 ng/mL, an Accuracy [7, 17] of 98.6±3.0% and a Measured value [7, 17] of 394.33 ± 12.06 ng/mL. The Accuracy [7, 18] was 95.0±2.0%, the Measured value [7, 18] was 0.95 ± 0.02 ng/mL and the Accuracy [7, 19] was 100.4±1.2%. The Measured value [7, 19] was 20.07 ± 0.25 ng/mL, the Accuracy [7, 20] was 102.5±1.4% and the Measured value [7, 20] was 410.00 ± 5.57 ng/mL. It also gave an Accuracy [7, 21] of 110.0±8.0%, a Measured value [7, 21] of 1.10 ± 0.08 ng/mL and an Accuracy [7, 22] of 112.5±4.1%. For the same compound, the Measured value [7, 22] was 22.50 ± 0.82 ng/mL, the percent of remaining [8] was 100.00% and the IC50 (TSPO [9]) was 0.23 nM. For the same compound, the antidepressant-like effect (forced swim rats; forced swim rats, 1, 3, and 10 mg/kg) was “marked acute antidepressant-like effects”, the “antidepressant-like and anxiolytic-like effects” value (forced swim rats; series of rat behavior models, 1–10 mg/kg oral dosing) was “significant antidepressant-like and anxiolytic-like effects” and the microsomal CLint at 1 μM (in vitro [10]) was 53 ± 20 µL/min/mg. The “Clint normalized by CYP content” value [11] was 3.47 ± 0.04 ml/min/nmol CYP protein, the “Clint normalized by CYP content” value [12] was 3.47 ± 0.04 ml/min/nmol CYP protein and 2.76 ± 0.05 ^a ml/min/nmol CYP protein and the “extraction of gut metabolism” value [13] was 78%.
